Data taken from patent US12215389B2, “Compositions for detecting epigenetic modifications” (EXACT SCIENCES CORPORATION, priority 2007, dated 2025).

Columns and labels:
[1] = system: methylated gene promoters in FFPE tissue DNA; experiment: Real-time MSP on colon tissue samples; set-up: species or system human; settings: for Specificity (%) / Sensitivity (%): 50 cases (adenoma + carcinoma) vs 39 controls, tissue
Procedure: Real-time MSP was applied on a 7900HT fast real-time PCR system (Applied Biosystems). 2.4 μl of the modified DNA (equivalent to 2.5 μg unconverted DNA) was added to a PCR mix (total volume 12 μl) containing buffer (16.6 mM (NH4)2SO4, 67 mM Tris (pH 8.8), 6.7 mM MgCl2, 10 mM β-mercaptoethanol), dNTPs (5 mM), forward primer (6 ng), reverse primer (18 ng), molecular beacon (0.16 μM), BSA (0.1 μg), and Jumpstart DNA Taq polymerase (0.4 units; Sigma Aldrich). Cycle program used was as follows: 5 minutes 95° C., followed by 45 cycles of 30 seconds 95° C., 30 seconds 57° C. (51° C. for APC), and 30 seconds 72° C., followed by 5 minutes 72° C. A standard curve (2×106—20 copies) was included to determine copy numbers of unknown samples by interpolation of their Ct values to the standard curve.
Marker selection in colon tissue: Based on re-expression, 224 different gene assays representing 145 gene promotors were tested on the Base5 methylation profiling platform (data not shown, see reference 1 for details). The 37 most differentially methylated gene sequences assessing 29 gene promoters were validated on retrospectively collected tumors from 65 colorectal cancer patients (all stages) and 74 distant resection ends (histopathologically normal) using real-time MSP. Several markers reliably detected CRC in those tissue samples (data not shown). The results were confirmed on an independent test set containing 39 tissue controls (non-cancerous), 34 carcinomas and 16 adenomas. Several combinations of the tested markers reliably detected CRC with high specificity and sensitivity.
The ten best performing markers GATA5, GATA4, SFRP1, SFRP2, APC, MGMT, NDRG4, OSMR, JPH3 and ADAM23 were validated with primer sets and beacon probes as specified in Table 24. In addition to the colon test genes, the independent reference gene β-Actin (ACT) was also measured. The ratios between the colon test genes and ACT were calculated, and are the test result of the assay.
Marker candidates identified by re-expression were screened using 37 real-time methylation specific PCR (real-time MSP) assays. These assays were used to assess the methylation status of 29 gene promoters in 293 formalin-fixed paraffin-embedded (FFPE) tissue samples collected from various clinics. Samples included 99 carcinomas of various stages, 16 adenomas, 63 samples from patients with cancer other than CRC (20 breast [stages I-III], 22 bladder [stages I-III], 21 lung [stages I and II]), 39 samples from patients with no evidence of cancer and 76 distant resection ends (histopathologically normal) from CRC patients. These samples were divided into training and independent test sets, and used to select the gene methylation assays best able to discriminate between cancerous and non-cancerous samples. The training set included retrospectively collected tumors from 65 colorectal cancer patients (all stages) and 74 distant resection ends. Using the 10 best performing genes the results were confirmed on an independent test set containing 59 samples from patients with cancer other than CRC, 39 non-cancerous controls and 50 cancer cases (34 carcinomas and 16 adenomas).
The individual performance of the 10 best performing tissue markers OSMR, SFRP1, GATA4, SFRP2, NDRG4, ADAM23, GATA5, MGMT, APC and JPH3 is shown in FIG. 7, when the analytical cut-off was set to give 100% specificity, except for JPH3 where a specificity of 95% was obtained (based on the 39 non-cancerous controls). In addition to the colon test genes, the independent reference gene β-Actin (ACT) was also measured. The ratios between the colon test genes and ACT were calculated, and are the test result of the assay.

[2] = system: methylated gene promoters in fecal DNA; experiment: Real-time MSP on stool (fecal) DNA; set-up: species or system human; settings: fecal samples; for Sens adenoma: 13 samples; for Sens CRC: 15 samples; for Spec: 19 samples
Text: A standardized multicenter screening trial (The Netherlands) was initiated in 2006. In this trial, non symptomatic subjects aged 50 or above are screened with colonoscopy, FOBT and real-time MSP using DNA from stool and blood. In addition, prospectively collected stool samples from multiple centers (Germany and The Netherlands) were used. In these trials, symptomatic patients, attending a Gastroenterology clinic and ultimately diagnosed with CRC, provided a stool sample for use in real-time MSP. From the ongoing trials 147 stool samples were available for the present study. 3 main categories of stool samples were used: 67 samples with no suspicious findings, 58 adenomas and 22 samples from patients covering all stages of CRC, with 90% representing early stage disease.
After defecation in a special bucket, patients added 250 ml of stool homogenization buffer (Amresco, Solon, Ohio, USA) to the sample. Samples were shipped to the laboratory and further processed within 72 hours after defecation. Stool homogenization buffer was added to a ratio 1:7, and the samples were homogenized and aliquoted in portions of 32 ml.
Single aliquots (32 ml containing the equivalent of 4 g of stool) were centrifuged for 5 minutes at 2540 rcf at 20° C. The supernatant was retained and centrifuged a second time (10 minutes at 16500 rcf at 4° C.). 22 ml of the supernatant obtained following the second centrifugation step was incubated with 5 μl Rnase A for 60 minutes at 37° C. Total DNA was then SodiumAcetate (pH 5.2)-isopropanol precipitated and washed with 70% ethanol. The DNA was resuspended in 4 ml 1×TE (pH 7.4). 400 μl 10× buffer (240 mM EDTA (pH=8.0), 750 mM NaC), 400 μl 10% SDS, and 20 μl Proteinase K (20 mg/ml) was added and the samples were incubated at 48° C. overnight at constant shaking (225 RPM). After centrifugation (3000 RCF for 30 seconds at room temperature), 5 ml of Phenol:Chloroform:Isoamylalcohol (25:24:1, v/v:Invitrogen) was added and incubated for 10 minutes at room temperature shaking at 225 RPM and centrifuged for 5 minutes at 3000 RCF. The aqueous layer was transferred to a new tube containing 5 ml of Phenol:Chloroform:Isoamylalcohol. Again, the samples were incubated for 10 minutes at room temperature shaking at 225 RPM and centrifuged for 5 minutes at 3000 RCF at room temperature. The aqueous layer was transferred to a new tube and DNA was precipitated by adding 500 μl 7.5 M Ammonium Acetate, 5 μl glycogen and 10 ml of cold 100% Ethanol (−20° C.), further incubated at −20° C. for at least 1 hour and centrifuged at 15000 RCF for 30 minutes at 4° C. Pellets were washed with 3.5 ml freshly prepared 70% Ethanol and air dried. Pellets were finally resuspended in 2 ml of LoTE pH 8.0 and stored at −80° C., until further processing.
An upscaled DNA modification step was applied to 32 μg of the obtained DNA. 16 Aliquots of 2 μg of DNA were subjected to bisulfite modification in 96-wells format on a pipetting robot (Tecan), using the EZ-96DNA Methylation kit (Zymo Research), according to the manufacturer's protocol. Basically, aliquots of 45 μl were mixed with 5 μl of M-Dilution Buffer and incubated at 37° C. for 15 minutes shaking at 1100 rpm. Then 100 μl of the diluted CT Conversion Reagent was added and samples were incubated at 70° C. for 3 hours, shaking at 1100 rpm in the dark. After conversion, the samples were desalted by incubation on ice for 10 minutes and addition of 400 μl of M-Binding buffer. The samples were loaded on a Zymo-Spin I Column in a collection tube and after centrifugation washed with 200 μl of M-Wash Buffer. 200 μl of M-Desulphonation Buffer was put onto the column and incubated at room temperature for 15 minutes. After centrifugation of the columns, they were washed twice with 200 μl of M-Wash Buffer. Finally, the DNA was washed from the column in 50 μl Tris-HCl 1 mM pH8.0 and stored at −80° C., until further processing.

[3] = system: NDRG4 or OSMR plasmid material; experiment: Real-time MSP assay designs on plasmid material; set-up: key to Ct / Duplicate Ct / Average Ct: cycle number at which amplification curve crosses threshold; settings: for PCR efficiency: from standard curve on plasmid material
Procedure: Plasmid material corresponding to a promoter region of NDRG4 and OSMR gene was used to test additional assay designs. The plasmid for the standard curve was generated as follows: the promoter sequence as defined by the primers is PCR amplified and cloned (using suitable isolated and bisulphite modified cell line DNA). The sequence is verified by sequencing and compared to the published promoter sequence. A serial dilution of either NDRG4 or OSMR plasmid material (2×10^6 to 2×10^1 copies/5 μl) was loaded in duplicate. 5 μl of plasmid dilution or buffer (non template control) was added to a 20 μl PCR mix containing the specified primer and beacon detector sequences as previously described. Results were generated using the SDS 2.2 software from Applied Biosystems with automatic baseline and threshold settings. Data were exported as Ct values (cycle number at which the amplification curves cross the threshold value, set automatically by the software).

[4] = 16 adenoma tissue samples vs 39 controls
[5] = 34 carcinoma tissue samples vs 39 controls
[6] = plasmid standard, quantity 20 copies
[7] = plasmid standard, quantity 200 copies
[8] = plasmid standard, quantity 2000 copies
[9] = plasmid standard, quantity 20000 copies
[10] = plasmid standard, quantity 200000 copies
[11] = plasmid standard, quantity 2000000 copies

Which results are given for “GATA4 (DNA AGGTTAGTTAGCGTTTTAGGGTC; listed as DNA, chemistry not given here)”?
Sensitivity [1, 4]: 88%; Specificity [1, 4]: 100%; Sensitivity [1, 5]: 74%; Specificity [1, 5]: 100%; Specificity (%) [1]: 100%; Sensitivity (%) ([1]; first cut off ratio): 78%; Sensitivity (%) ([1]; second cut off ratio, between ( )): (82) %; Sens adenoma [2]: 15%; Sens CRC [2]: 73%; Spec [2]: 100%

With “MGMT (DNA TTTCGACGTTCGTAGGTTTTCGC; listed as DNA, chemistry not given here)” as the substance, how does the Sensitivity [1, 4] read?
Its Sensitivity is 63%.

What about the Specificity [1, 4] of the same substance?
Its Specificity is 100%.

What about the Sensitivity [1, 5] of the same substance?
Its Sensitivity is 35%.

And the Specificity [1, 5]?
The Specificity was 100%.

And the “Specificity (%)” value [1]?
Its value is 100%.

And the “Sensitivity (%)” value ([1]; first cut off ratio)?
The value was 44%.

For “OSMR (3) (DNA TTTGGTCGGGGTAGGAGTAGC; listed as DNA, chemistry not given here)”, which Sensitivity [1, 4] is on record?
The Sensitivity was 88%.

What about the Specificity [1, 4] of the same substance?
The Specificity was 100%.

And the Sensitivity [1, 5]?
The Sensitivity was 88%.

And the Specificity [1, 5]?
Its Specificity is 100%.

What about the “Specificity (%)” value [1] of the same substance?
Its value is 100%.

And the “Sensitivity (%)” value ([1]; first cut off ratio)?
Its value is 88%.

And the Sens adenoma [2]?
Its Sens adenoma is 8%.

And the “Sens CRC” value [2]?
Its value is 67%.

And the Spec [2]?
The Spec was 100%.

How did the Ct ([3]; NTC (non template control), quantity 0) turn out when “OSMR_3 (DNA TTTGGTCGGGGTAGGAGTAGC; listed as DNA, chemistry not given here)” was run?
The Ct was 38.13.

What about the PCR efficiency [3] of the same substance?
Its PCR efficiency is 97.2%.

And the “Average Ct” value [3, 6]?
The value was 33.98.

And the Ct [3, 6]?
The Ct was 34.18.

And the “Duplicate Ct” value [3, 6]?
Its value is 33.77.

What about the “Average Ct” value [3, 7] of the same substance?
Its value is 30.59.

And the Ct [3, 7]?
Its Ct is 30.51.

What about the “Duplicate Ct” value [3, 7] of the same substance?
Its value is 30.67.

What about the “Average Ct” value [3, 8] of the same substance?
Its value is 27.19.

What about the Ct [3, 8] of the same substance?
The Ct was 27.22.

And the “Duplicate Ct” value [3, 8]?
Its value is 27.16.

And the “Average Ct” value [3, 9]?
The value was 23.90.

And the Ct [3, 9]?
The Ct was 23.97.

What about the “Duplicate Ct” value [3, 9] of the same substance?
The value was 23.83.

What about the “Average Ct” value [3, 10] of the same substance?
The value was 20.35.

And the Ct [3, 10]?
Its Ct is 20.41.

And the “Duplicate Ct” value [3, 10]?
The value was 20.29.

What about the “Average Ct” value [3, 11] of the same substance?
Its value is 17.04.

And the Ct [3, 11]?
The Ct was 16.93.

And the “Duplicate Ct” value [3, 11]?
Its value is 17.16.

With “OSMR_4 (DNA TTTGGTCGGGGTAGGAGTAGC; listed as DNA, chemistry not given here)” as the substance, how does the PCR efficiency [3] read?
Its PCR efficiency is 100.8%.

And the “Average Ct” value [3, 6]?
Its value is 34.37.

And the Ct [3, 6]?
The Ct was 34.63.

And the “Duplicate Ct” value [3, 6]?
Its value is 34.12.

What about the “Average Ct” value [3, 7] of the same substance?
Its value is 31.28.

What about the Ct [3, 7] of the same substance?
Its Ct is 31.37.

What about the “Duplicate Ct” value [3, 7] of the same substance?
Its value is 31.18.

What about the “Average Ct” value [3, 8] of the same substance?
The value was 28.08.

And the Ct [3, 8]?
Its Ct is 28.24.

And the “Duplicate Ct” value [3, 8]?
Its value is 27.91.

What about the “Average Ct” value [3, 9] of the same substance?
The value was 24.72.

And the Ct [3, 9]?
The Ct was 24.79.

What about the “Duplicate Ct” value [3, 9] of the same substance?
The value was 24.64.

And the “Average Ct” value [3, 10]?
Its value is 21.31.

And the Ct [3, 10]?
The Ct was 21.56.

What about the “Duplicate Ct” value [3, 10] of the same substance?
The value was 21.05.

What about the “Average Ct” value [3, 11] of the same substance?
The value was 18.07.

And the Ct [3, 11]?
Its Ct is 18.24.

What about the “Duplicate Ct” value [3, 11] of the same substance?
The value was 17.90.
